ChEMBL document CHEMBL5506012, “Targeting Myeloid Leukemia-1 in Cancer Therapy: Advances and Directions” (J Med Chem, 2024)
Blank lines part the entries; values can stand above or below the molecule they belong to.

How the values were obtained:
[1] = biological target: T1, Induced myeloid leukemia cell differentiation protein Mcl-1 (Homo sapiens, UniProt Q07820); test: Binding affinity to Mcl-1 (unknown origin) assessed as inhibition constant
[2] = biological target: T1, Induced myeloid leukemia cell differentiation protein Mcl-1; test: Inhibition of N-terminal GST-tagged human Mcl-1expressed in Escherichia coli by TR-FRET analysis
[3] = biological target: T1, Induced myeloid leukemia cell differentiation protein Mcl-1; test: Inhibition of Mcl-1 (unknown origin)
Bcl-2-like protein 1 [4] = biological target: T2, Bcl-2-like protein 1 (Homo sapiens, UniProt Q07817); test: Binding affinity to Bcl-XL (unknown origin) assessed as inhibition constant by fluorescence polarization assay
T2 sequence (Q07817 whole entry): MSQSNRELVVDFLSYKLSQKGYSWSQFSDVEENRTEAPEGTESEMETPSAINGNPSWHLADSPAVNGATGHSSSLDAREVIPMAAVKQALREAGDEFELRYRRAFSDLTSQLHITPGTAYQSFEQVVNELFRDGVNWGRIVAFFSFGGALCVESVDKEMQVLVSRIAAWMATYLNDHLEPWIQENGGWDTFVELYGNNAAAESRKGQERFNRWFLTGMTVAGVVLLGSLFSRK

MV4-11 [5] = test: Induction of apoptosis in human MV4-11 cells; format: functional, cell-based
SUD4 = test: Induction of apoptosis in human SU-DHL-4 cells; format: functional, cell-based
[6] = biological target: T1, Induced myeloid leukemia cell differentiation protein Mcl-1; test: Binding affinity to human Mcl-1 assessed as inhibition constant
MOLP-8 [7] = test: Induction of apoptosis in human MOLP8 cells; format: functional, cell-based
MOLM-13 [8] = test: Induction of apoptosis in human MOLM-13 cells; format: functional, cell-based
EOL1 = test: Induction of apoptosis in human EOL1 cells; format: functional, cell-based
MOLM-13 [9] = test: Growth inhibition of human MOLM-13 cells by cell-titer Glo reagent based assay; format: functional
[10] = biological target: T3, Apoptosis regulator Bcl-2 (Homo sapiens, UniProt P10415); test: Binding affinity to Bcl-2 (unknown origin) expressed in Escherichia coli BL21 (DE3) assessed as inhibition constant by fluorescence polarization assay
T3 sequence (P10415 whole entry): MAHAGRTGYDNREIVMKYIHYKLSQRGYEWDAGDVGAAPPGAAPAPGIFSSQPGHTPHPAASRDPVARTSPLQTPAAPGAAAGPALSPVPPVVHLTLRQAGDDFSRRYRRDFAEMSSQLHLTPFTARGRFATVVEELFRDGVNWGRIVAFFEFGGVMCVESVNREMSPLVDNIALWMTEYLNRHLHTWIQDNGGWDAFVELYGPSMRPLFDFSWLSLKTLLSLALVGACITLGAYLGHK

NCI-H522 = test: Antiproliferative activity against human NCI-H522 cells assessed as reduction in cell viability incubated for 48 hrs by MTT assay; format: functional, cell-based; details: NCI-H522, 48 h
NCI-H929 [11] = test: Antiproliferative activity against human NCI-H929 cells assessed as reduction in cell viability; format: functional, cell-based
SK-BR-3 = test: Antiproliferative activity against human SK-BR-3 cells assessed as reduction in cell viability incubated for 48 hrs by MTT assay; format: functional, cell-based; details: SK-BR-3, 48 h
SK-MEL-2 = test: Antiproliferative activity against human SK-MEL-2 cells assessed as reduction in cell viability incubated for 48 hrs by MTT assay; format: functional, cell-based; details: SK-MEL-2, 48 h
NCI-H929 [12] = test: Antitumor activity against human NCI-H929 cells xenografted in mouse model assessed as tumor growth inhibition at 25 mg/kg administered for 5 days relative to control; format: functional; details: NCI-H929, 120 h, time 5 day, read-out: TGI
MV4-11 [13] = test: Antiproliferative activity against human MV4-11 cells assessed as reduction in cell viability; format: functional, cell-based
AMO1 [14] = test: Antiproliferative activity against human AMO1 cells assessed as reduction in cell viability; format: functional, cell-based
AMO1 [15] = test: Antitumor activity against human AMO1 cells xenografted in mouse model assessed as tumor growth inhibition at 25 mg/kg administered for 5 days relative to control; format: functional; details: AMO1, 120 h, time 5 day, read-out: TGI
AMO1 [16] = test: Antitumor activity against human AMO1 cells xenografted in mouse model assessed as tumor growth inhibition at 6.25 mg/kg administered for 5 days relative to control; format: functional; details: AMO1, 120 h, time 5 day, read-out: TGI
[17] = biological target: T1, Induced myeloid leukemia cell differentiation protein Mcl-1; test: Binding affinity to human Mcl-1 assessed as dissociation constant by Surface Plasmon Resonance assay
[18] = biological target: T1, Induced myeloid leukemia cell differentiation protein Mcl-1; test: Binding affinity to Mcl-1 (unknown origin) assessed as inhibition constant by Fluorescence polarization assay
MOLP-8 [19] = test: Antiproliferative activity against human MOLP8 cells assessed as reduction in cell viability incubated for 24 hrs by Celltiter-Glo reagent based assay; details: MOLP-8, 24 h
MV4-11 [20] = test: Antiproliferative activity against human MV4-11 cells assessed as reduction in cell viability incubated for 24 hrs by Celltiter-Glo reagent based assay; details: MV4-11, 24 h
NCI-H23 = test: Antiproliferative activity against human NCI-H23 cells assessed as reduction in cell viability incubated for 24 hrs by Celltiter-Glo reagent based assay; format: functional; details: NCI-H23, 24 h
HCC1187 = test: Growth inhibition of human HCC1187
BC = test: Growth inhibition of human BC cells; format: functional
HL-60 = test: Growth inhibition of human HL-60 cells incubated for 48 hrs by cell-titer Glo reagent based assay; format: functional
MV4-11 [21] = test: cells; details: Homo sapiens, MV4-11, 48 h
Description: Growth inhibition of human MV4-11 cells incubated for 48 hrs by cell-titer Glo reagent based assay

MV4-11 [22] = test: Antitumor activity against human MV4-11 cells xenografted in SCID mouse assessed as inhibition of tumor growth at 100 mg/kg administered for 14 days consecutively relative to control; format: functional; details: MV4-11, 336 h, time 14 day, read-out: TGI
THP-1 = test: Growth inhibition of human THP-1 cells incubated for 48 hrs by cell-titer Glo reagent based assay; format: functional
MOLM-13 [23] = test: Growth inhibition of human MOLM-13 cells incubated for 48 hrs by cell-titer Glo reagent based assay; format: functional
OCI-AML-5 = test: Antiproliferative activity against human OCI-AML5 cells assessed as reduction in cell viability incubated for 48 hrs by MTT assay; details: OCI-AML-5, 48 h
[24] = biological target: T3, Apoptosis regulator Bcl-2; test: Binding affinity to human Bcl-2 assessed as inhibition constant SPR assay
MV4-11 [25] = test: animal or person; details: Mus musculus, MV4-11, po, 120 h, read-out: TGI
Description: Antitumor activity against human MV4-11 cells xenografted in C57BL/6 mouse assessed as tumor growth inhibition at 12.5 mg/kg, po administered once daily for 5 days relative to control

[26] = Oral bioavailability in CD-1 mouse at 10 mg/kg, […]; format: ADME, organism-based; details: in vivo
[27] = biological target: T1, Induced myeloid leukemia cell differentiation protein Mcl-1; test: Binding affinity to N-terminal His-tagged human recombinant Mcl-1 (172 to 327 residues) expressed in Escherichia coli BL21 (DE3) assessed as inhibition constant
AMO1 [28] = test: Antitumor activity against human AMO1 cells xenografted in mouse model assessed as tumor growth inhibition at 12.5 mg/kg administered for 20 days relative to control; format: functional; details: AMO1, 480 h, time 20 day, read-out: TGI
Bcl-2-related protein A1 = Bcl-2-related protein A1 (Homo sapiens, UniProt Q16548); test: Binding affinity to Bfl-1 (unknown origin) assessed as inhibition constant
Sequence of Bcl-2-related protein A1 (Q16548 whole entry): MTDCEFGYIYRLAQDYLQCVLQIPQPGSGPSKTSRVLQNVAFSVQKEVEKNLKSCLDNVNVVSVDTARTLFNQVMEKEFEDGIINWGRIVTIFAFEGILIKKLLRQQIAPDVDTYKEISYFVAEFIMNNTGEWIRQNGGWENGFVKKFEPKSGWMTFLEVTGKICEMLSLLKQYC

[29] = biological target: T3, Apoptosis regulator Bcl-2; test: Binding affinity to Bcl-2 (unknown origin) assessed as inhibition constant
Bcl-2-like protein 1 [30] = biological target: T2, Bcl-2-like protein 1; test: Binding affinity to Bcl-xL (unknown origin) assessed as inhibition constant
Bcl-2-like protein 2 = Bcl-2-like protein 2 (Homo sapiens, UniProt Q92843); test: Binding affinity to Bcl-W (unknown origin) assessed as inhibition constant
Sequence of Bcl-2-like protein 2 (Q92843 whole entry): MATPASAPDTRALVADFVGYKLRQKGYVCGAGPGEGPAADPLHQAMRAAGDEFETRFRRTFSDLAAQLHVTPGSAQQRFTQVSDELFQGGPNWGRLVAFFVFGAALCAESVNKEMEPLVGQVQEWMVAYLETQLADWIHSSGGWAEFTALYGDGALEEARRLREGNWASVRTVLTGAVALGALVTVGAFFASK

[31] = biological target: T1, Induced myeloid leukemia cell differentiation protein Mcl-1; test: Inhibition of human recombinant Mcl-1 by Surface Plasmon Resonance assay

T1 sequence (Q07820 whole entry): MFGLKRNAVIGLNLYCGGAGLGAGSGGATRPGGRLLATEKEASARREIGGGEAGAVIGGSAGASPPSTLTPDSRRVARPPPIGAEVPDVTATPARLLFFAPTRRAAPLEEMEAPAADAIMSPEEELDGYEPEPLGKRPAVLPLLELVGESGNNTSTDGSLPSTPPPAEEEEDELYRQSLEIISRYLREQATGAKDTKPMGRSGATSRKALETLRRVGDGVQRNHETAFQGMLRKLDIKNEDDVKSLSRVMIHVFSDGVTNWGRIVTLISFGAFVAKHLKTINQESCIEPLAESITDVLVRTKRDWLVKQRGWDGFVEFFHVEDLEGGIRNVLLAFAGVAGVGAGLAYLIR

- Ki [1]: 0.05 nM
SMILES: CCC1CC/C=C/C(O)C2CCC2CN2CC3(CCc4cc(Cl)ccc43)COc3ccc(cc32)C(=O)NS1(=O)=O (stereo unspecified)

- IC50 [2]: 42 nM
SMILES: Cc1cc(SCc2nn(C)c(C)c2-c2cccc3c(CCCOc4cccc5ccccc45)c(C(=O)O)[nH]c23)nn1C

- IC50 [3]: 300 nM
SMILES: O=C(NS(=O)(=O)Cc1ccccc1)c1ccc2c(c1)N(CC1CCC1)CC(c1ccc(Cl)cc1Cl)O2 (stereo unspecified)

- Ki (Bcl-2-like protein 1 [4]): 5 µM
- Ki [6]: 6 pM
- GI50 (MOLM-13 [9]): 10 nM
- Ki [10]: 3.75 µM
SMILES: COCCOCCn1nc(C)c2c1CSCc1cc(n(C)n1)CCc1cc(c3ccccc3c1)OCCCn1c(C(=O)O)c(C)c3c-2c(Cl)ccc31
- AC50 (MV4-11 [5]): 14 nM
- AC50 (SUD4): 21 nM
- AC50 (MOLP-8 [7]): 8.7 nM
- AC50 (MOLM-13 [8]): 10 nM
- AC50 (EOL1): 2.1 nM

- IC50 (NCI-H522): < 100 nM
- EC50 (NCI-H929 [11]): 4.75 nM
- IC50 (SK-BR-3): < 100 nM
- IC50 (SK-MEL-2): < 100 nM
- EC50 (MV4-11 [13]): 10.9 nM
SMILES: COc1ccccc1-c1nccc(COc2ccccc2C[C@H](Oc2ncnc3sc(-c4ccc(F)cc4)c(-c4ccc(OCCN5CCN(C)CC5)c(Cl)c4C)c23)C(=O)O)n1
- inhibition in vivo at 25 mg/kg (NCI-H929 [12]): 103%
- EC50 (AMO1 [14]): 2.06 nM
- inhibition in vivo at 25 mg/kg (AMO1 [15]): 114%
- inhibition in vivo at 6.25 mg/kg (AMO1 [16]): 190%

- IC50 [2]: 19 nM
SMILES: Cc1c2c(nn1C)CSCc1cc(n(C)n1)CCc1cc(c3ccccc3c1)OCCCc1c(C(=O)O)[nH]c3c-2cccc13

- Kd [17]: 0.19 nM
- Ki [18]: 1.2 nM
SMILES: CCc1sc2ncnc(N[C@@H](C)C(=O)O)c2c1CC

- EC50 (NCI-H929 [11]): 31.7 nM
- EC50 (MV4-11 [13]): 34.9 nM
- EC50 (MV4-11 [20]): 24 nM
- EC50 (NCI-H23): 190 nM
SMILES: Cc1c2c(nn1C)CSCc1cc(n(C)n1)CSc1cc(c3ccccc3c1)OCCCc1c(C(=O)O)n(C)c3c-2c(Cl)ccc13 [AZD-5991]
- EC50 (MOLP-8 [19]): 33 nM
- EC50 (AMO1 [14]): 22.9 nM

- GI50 (HCC1187): 2100 nM
- GI50 (HL-60): 3.71 µM
- GI50 (MV4-11 [21]): 180 nM
- GI50 (THP-1): 490 nM
- GI50 (MOLM-13 [23]): 210 nM
SMILES: Cc1cc(OCCCc2c3n(c4c(-c5c(C)nn(C)c5C)c(Cl)ccc24)[C@H](C)CN(c2cn(C)c4ccc(C(=O)O)cc24)C3=O)cc(C)c1Cl
- GI50 (BC): 1300 nM
- inhibition in vivo at 100 mg/kg (MV4-11 [22]): 60%

- EC50 (NCI-H929 [11]): < 10 nM
- IC50 (OCI-AML-5): 4 nM
- Ki [24]: > 10 µM
SMILES: Cc1c(-c2c(-c3ccc(F)o3)sc3ncnc(O[C@H](Cc4ccccc4OCc4ccnn4CC(F)(F)F)C(=O)O)c23)ccc(OCCN2CCN(C)CC2)c1Cl
- inhibition in vivo at 12.5 mg/kg (MV4-11 [25]): 86%

- bioavailability [26]: 57%
SMILES: CC1(C)CCC(c2ccc(Cl)cc2)=C(CN2CCN(c3ccc(C(=O)NS(=O)(=O)c4ccc(N[C@H](CCN5CCOCC5)CSc5ccccc5)c(S(=O)(=O)C(F)(F)F)c4)cc3)CC2)C1 [NAVITOCLAX]

- Ki [27]: 68 µM
SMILES: Cc1cc(OCCC(=O)O)cc(C)c1Cl

- EC50 (NCI-H929 [11]): 13 nM
- EC50 (MV4-11 [13]): 43.6 nM
SMILES: CO[C@]1(CN2CCN3CCCC[C@@H]3C2)/C=C/C[C@H](C)[C@@H](C)S(=O)(=O)NC(=O)c2ccc3c(c2)N(C[C@@H]2CC[C@H]21)C[C@@]1(CCCc2cc(Cl)ccc21)CO3 [MURIZATOCLAX]
- EC50 (AMO1 [14]): 13.5 nM

- EC50 (NCI-H929 [11]): 0.47 nM
- Ki [1]: < 0.01 nM
- Ki (Bcl-2-related protein A1): > 468 nM
- Ki [29]: 599 nM
- EC50 (MV4-11 [13]): 3.91 nM
- Ki (Bcl-2-like protein 1 [30]): > 660 nM
- Ki (Bcl-2-like protein 2): > 468 nM
SMILES: Cc1c(Cl)c2c(Cl)c(C)c1-c1c(-c3ccc(F)cc3)sc3ncnc(c13)O[C@@H](C(=O)O)Cc1cc(ccc1OCc1ccnc(-c3ccc(OC[C@@H]4COCCO4)cc3)n1)OC[C@@H](CN1CCN(C)CC1)O2
- inhibition in vivo at 12.5 mg/kg (AMO1 [28]): 46%
- EC50 (AMO1 [14]): 0.16 nM

- IC50 [31]: 310 nM
SMILES: O=C(O)CSc1cc(NS(=O)(=O)c2ccc(Br)cc2)c2ccccc2c1O
